Results published in US20230107642A1 (Erasca, Inc., priority 2020, published 2023).

Molecular target: T1, Cys12 of the KRAS 4B G12C protein (Homo sapiens, UniProt P01116, G12C)
T1 construct: This protein contained 188 amino acids in total, including an N-terminal 6-Histidine tag; made in house; host or cells: E. coli BL21
Assay: In vitro covalent adduct formation (CAF) assay, LC-MS intact mass
Type: binding
Settings: 10 uM compound, 60 min incubation
In short: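 Percent covalent modification from intact-mass LC-MS, by relative free versus adducted protein (adducts within 1 Da of expected mass). Reaction: 10 μM compound with 5 μM E. coli-expressed, GDP-exchanged KRAS 4B G12C in TBS pH 7.4, 4% DMSO, 1 h at 22° C.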

In the case of `C=CC(=O)N1[C@H](C)CN(c2nc(=O)n3c4c(c(-c5cc(Cl)c(F)cc5F)c(C(F)(F)F)cc24)SCC2(COC2)C3)C[C@@H]1C` [Example 1100, 8′-((3S,5R)-4-acryloyl-3,5-dimethylpiperazin-1-yl)-11′-(5-chloro-2,4-difluorophenyl)-10′-(trifluoromethyl)-2′H,4′H,6′H-spiro[oxetane-3,3′-[1,4]thiazepino [2,3,4-ij]quinazolin]-6′-one], the “% CAF 10 uM @ 60 min” value was 88.8%.

Same assay, conditions: after 60 min

Point of comparison: `C=CC(=O)N1[C@H](C)CN(c2nc(=O)n3c4c(c(-c5cc(Cl)c(F)cc5F)c(C(F)(F)F)cc24)SC[C@H](OCCOC)C3)C[C@@H]1C` [Example 1030, (3R)-8-((3S,5R)-4-acryloyl-3,5-dimethylpiperazin-1-yl)-11-(5-chloro-2,4-difluorophenyl)-3-(2-methoxyethoxy)-10-(trifluoromethyl)-3,4-dihydro-2H,6H-[1,4]thiazepino[2,3,4-ij]quinazolin-6-one], “CAF (% binding after 60 min)” value 96%. Against it:
- C=CC(=O)N1[C@H](C)CN(c2nc(=O)n3c4c(c(-c5ccc(F)cc5F)c(C(F)(F)F)cc24)SC[C@H](OCCOC)C3)C[C@@H]1C [Example 1026, (3R)-8-((3S,5R)-4-acryloyl-3,5-dimethylpiperazin-1-yl)-11-(2,4-difluorophenyl)-3-(2-methoxyethoxy)-10-(trifluoromethyl)-3,4-dihydro-2H,6H-[1,4]thiazepino[2,3,4-ij]quinazolin-6-one] — lower, 95%
- C=CC(=O)N1[C@H](C)CN(c2nc(=O)n3c4c(c(-c5ccc(F)cc5F)c(C(F)(F)F)cc24)SC[C@@H](OCCOC)C3)C[C@@H]1C [Example 1027, (3S)-8-((3S,5R)-4-acryloyl-3,5-dimethylpiperazin-1-yl)-11-(2,4-difluorophenyl)-3-(2-methoxyethoxy)-10-(trifluoromethyl)-3,4-dihydro-2H,6H-[1,4]thiazepino[2,3,4-ij]quinazolin-6-one 3,4-dihydro-2H,6H-[1,4]thiazepino[2,3,4-ij]quinazolin-6-one] — the same, 96%
- C=CC(=O)N1[C@H](C)CN(c2nc(=O)n3c4c(c(-c5ccc(F)c(Cl)c5)c(C(F)(F)F)cc24)SC[C@H](OCCOC)C3)C[C@@H]1C [Example 1028, (R)-8-((3S,5R)-4-acryloyl-3,5-dimethylpiperazin-1-yl)-11-(3-chloro-4-fluorophenyl)-3-(2-methoxyethoxy)-10-(trifluoromethyl)-3,4-dihydro-2H,6H-[1,4]thiazepino[2,3,4-ij]quinazolin-6-one] — the same, 96%
- C=CC(=O)N1[C@H](C)CN(c2nc(=O)n3c4c(c(-c5ccc(F)c(Cl)c5)c(C(F)(F)F)cc24)SC[C@@H](OCCOC)C3)C[C@@H]1C [Example 1029, (S)-8-((3S,5R)-4-acryloyl-3,5-dimethylpiperazin-1-yl)-11-(3-chloro-4-fluorophenyl)-3-(2-methoxyethoxy)-10-(trifluoromethyl)-3,4-dihydro-2H,6H-[1,4]thiazepino[2,3,4-ij]quinazolin-6-one] — the same, 96%
- C=CC(=O)N1[C@H](C)CN(c2nc(=O)n3c4c(c(-c5cc(Cl)c(F)cc5F)c(C(F)(F)F)cc24)SC[C@@H](OCCOC)C3)C[C@@H]1C [Example 1031, (3S)-8-((3S,5R)-4-acryloyl-3,5-dimethylpiperazin-1-yl)-11-(5-chloro-2,4-difluorophenyl)-3-(2-methoxyethoxy)-10-(trifluoromethyl)-3,4-dihydro-2H,6H-[1,4]thiazepino[2,3,4-ij]quinazolin-6-one] — lower, 95%
- C=CC(=O)N1[C@H](C)CN(c2nc(=O)n3c4c(c(-c5ccc(F)cc5)c(C(F)(F)F)cc24)SC[C@@H](N)C3)C[C@@H]1C [Example 1032, (S)-8-((3S,5R)-4-acryloyl-3,5-dimethylpiperazin-1-yl)-3-amino-11-(4-fluorophenyl)-10-(trifluoromethyl)-3,4-dihydro-2H,6H-[1,4]thiazepino[2,3,4-ij]quinazolin-6-one] — lower, 92%
- C=CC(=O)N1[C@H](C)CN(c2nc(=O)n3c4c(c(-c5ccc(F)cc5)c(C(F)(F)F)cc24)SC[C@@H](OCCN(C)C)C3)C[C@@H]1C [Example 1033, (S)-8-((3S,5R)-4-acryloyl-3,5-dimethylpiperazin-1-yl)-3-(2-(dimethylamino)ethoxy)-11-(4-fluorophenyl)-10-(trifluoromethyl)-3,4-dihydro-2H,6H-[1,4]thiazepino[2,3,4-ij]quinazolin-6-one] — the same, 96%
- C=CC(=O)N1[C@H](C)CN(c2nc(=O)n3c4c(c(-c5ccc(F)cc5F)c(C(F)(F)F)cc24)SC[C@@H](OCCN(C)C)C3)C[C@@H]1C [Example 1034, (3S)-8-((3S,5R)-4-acryloyl-3,5-dimethylpiperazin-1-yl)-11-(2,4-difluorophenyl)-3-(2-(dimethylamino)ethoxy)-10-(trifluoromethyl)-3,4-dihydro-2H,6H-[1,4]thiazepino[2,3,4-ij]quinazolin-6-one] — higher, 97%
- C=CC(=O)N1[C@H](C)CN(c2nc(=O)n3c4c(c(-c5ccc(F)c(Cl)c5)c(C(F)(F)F)cc24)SC[C@@H](OCCN(C)C)C3)C[C@@H]1C [Example 1035, (S)-8-((3S,5R)-4-acryloyl-3,5-dimethylpiperazin-1-yl)-11-(3-chloro-4-fluorophenyl)-3-(2-(dimethylamino)ethoxy)-10-(trifluoromethyl)-3,4-dihydro-2H,6H-[1,4]thiazepino[2,3,4-ij]quinazolin-6-one] — higher, 97%
- C=CC(=O)N1[C@H](C)CN(c2nc(=O)n3c4c(c(-c5cc(Cl)c(F)cc5F)c(C(F)(F)F)cc24)SC[C@@H](OCCN(C)C)C3)C[C@@H]1C [Example 1036, (3S)-8-((3S,5R)-4-acryloyl-3,5-dimethylpiperazin-1-yl)-11-(5-chloro-2,4-difluorophenyl)-3-(2-(dimethylamino)ethoxy)-10-(trifluoromethyl)-3,4-dihydro-2H,6H-[1,4]thiazepino[2,3,4-ij]quinazolin-6-one] — higher, 97%
- C=CC(=O)N1CCN(c2nc(=O)n3c4c(c(-c5ccc(F)cc5)c(C(F)(F)F)cc24)SC[C@H](OC)C3)CC1 [Example 1037, (R)-8-(4-acryloylpiperazin-1-yl)-11-(4-fluorophenyl)-3-methoxy-10-(trifluoromethyl)-3,4-dihydro-2H,6H-[1,4]thiazepino[2,3,4-ij]quinazolin-6-one] — the same, 96%
- C=CC(=O)N1CCN(c2nc(=O)n3c4c(c(-c5ccc(F)cc5)c(C(F)(F)F)cc24)SC[C@@H](OC)C3)CC1 [Example 1038, (S)-8-(4-acryloylpiperazin-1-yl)-11-(4-fluorophenyl)-3-methoxy-10-(trifluoromethyl)-3,4-dihydro-2H,6H-[1,4]thiazepino[2,3,4-ij]quinazolin-6-one] — higher, 97%
- C=CC(=O)N1[C@H](C)CN(c2nc(=O)n3c4c(c(-c5ccc(F)cc5)c(Cl)cc24)SC[C@H](OC)C3)C[C@@H]1C [Example 1039, (R)-8-((3S,5R)-4-acryloyl-3,5-dimethylpiperazin-1-yl)-10-chloro-11-(4-fluorophenyl)-3-methoxy-3,4-dihydro-2H,6H-[1,4]thiazepino[2,3,4-ij]quinazolin-6-one] — the same, 96%
- C=CC(=O)N1[C@H](C)CN(c2nc(=O)n3c4c(c(-c5ccc(F)cc5)c(Cl)cc24)SC[C@@H](OC)C3)C[C@@H]1C [Example 1040, (S)-8-((3S,5R)-4-acryloyl-3,5-dimethylpiperazin-1-yl)-10-chloro-11-(4-fluorophenyl)-3-methoxy-3,4-dihydro-2H,6H-[1,4]thiazepino[2,3,4-ij]quinazolin-6-one] — the same, 96%
- C=CC(=O)N1CCN(c2nc(=O)n3c4c(c(-c5ccc(F)c(Cl)c5)c(C(F)(F)F)cc24)SC[C@H](OC)C3)CC1 [Example 1041, (R)-8-(4-acryloylpiperazin-1-yl)-11-(3-chloro-4-fluorophenyl)-3-methoxy-10-(trifluoromethyl)-3,4-dihydro-2H,6H-[1,4]thiazepino[2,3,4-ij]quinazolin-6-one] — higher, 97%
- C=CC(=O)N1CCN(c2nc(=O)n3c4c(c(-c5ccc(F)c(Cl)c5)c(C(F)(F)F)cc24)SC[C@@H](OC)C3)CC1 [Example 1042, (S)-8-(4-acryloylpiperazin-1-yl)-11-(3-chloro-4-fluorophenyl)-3-methoxy-10-(trifluoromethyl)-3,4-dihydro-2H,6H-[1,4]thiazepino[2,3,4-ij]quinazolin-6-one] — higher, 97%
- C=CC(=O)N1CCN(c2nc(=O)n3c4c(c(-c5ccc(F)c(Cl)c5)c(C(F)(F)F)cc24)SC[C@H](OC)C3)CC1 [Example 1043, (R)-8-(4-acryloylpiperazin-1-yl)-11-(3-chloro-4-fluorophenyl)-3-methoxy-10-(trifluoromethyl)-3,4-dihydro-2H,6H-[1,4]thiazepino[2,3,4-ij]quinazolin-6-one] — higher, 97%
- C=CC(=O)N1[C@H](C)CN(c2nc(=O)n3c4c(c(-c5ccc(F)c(Cl)c5)c(C(F)(F)F)cc24)SC[C@H](OC)C3)C[C@@H]1C [Example 1045, (R)-8-((3S,5R)-4-acryloyl-3,5-dimethylpiperazin-1-yl)-11-(3-chloro-4-fluorophenyl)-3-methoxy-10-(trifluoromethyl)-3,4-dihydro-2H,6H-[1,4]thiazepino[2,3,4-ij]quinazolin-6-one] — the same, 96%
- C=CC(=O)N1[C@H](C)CN(c2nc(=O)n3c4c(c(-c5ccc(F)c(Cl)c5)c(C(F)(F)F)cc24)SC[C@@H](OC)C3)C[C@@H]1C [Example 1046, (S)-8-((3S,5R)-4-acryloyl-3,5-dimethylpiperazin-1-yl)-11-(3-chloro-4-fluorophenyl)-3-methoxy-10-(trifluoromethyl)-3,4-dihydro-2H,6H-[1,4]thiazepino[2,3,4-ij]quinazolin-6-one] — the same, 96%
